# Measured values published in patent US10442803B2, “Tricyclic heterocycles as bet protein inhibitors” (Incyte Corporation, priority 2013, dated 2019).
# System: KMS.12.BM cells
# Assay: KMS.12.BM cell viability assay
# Format: cell-based
# Conditions: 72 h; KMS.12.BM human myeloma cells, 3 days, Cell Titer-GLO ATP quantitation; read-out: KMS cellular IC50
# Summary of the method: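 IC50 derived from luminescent ATP quantitation (Cell Titer-GLO) of viable cells after 3-day compound treatment. KMS.12.BM human myeloma line seeded at 5000 cells/well in RPMI with 10% FBS.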
row,Structure (SMILES),IC50 [nM]
1,"Cc1nnc2ccc3c(cc(-c4ccn(CC#N)n4)n3Cc3ccccc3)n12 [Example 65, [3-(6-benzyl-1-methyl-6H-pyrrolo[2,3-e][1,2,4]triazolo[4,3-a]pyridin-7-yl)-1H-pyrazol-1-yl]acetonitrile]",≤ 1000
2,"Cc1nnc2ccc3c(cc(-c4cscn4)n3Cc3ccccc3)n12 [Example 66, 6-benzyl-1-methyl-7-(1,3-thiazol-4-yl)-6H-pyrrolo[2,3-e][1,2,4]triazolo[4,3-a]pyridine]",≤ 1000
3,"Cc1nnc2ccc3c(cc(-c4nccs4)n3Cc3ccccc3)n12 [Example 67, 6-benzyl-1-methyl-7-(1,3-thiazol-2-yl)-6H-pyrrolo[2,3-e][1,2,4]triazolo[4,3-a]pyridine]",≤ 1000
4,"Cc1nnc2ccc3c(cc(-c4ccccn4)n3Cc3ccccc3)n12 [Example 68, 6-benzyl-1-methyl-7-pyridin-2-yl-6H-pyrrolo[2,3-e][1,2,4]triazolo[4,3-a]pyridine]",≤ 1000
5,"Cc1nnc2ccc3c(cc(-c4cncs4)n3Cc3ccccc3)n12 [Example 69, 6-benzyl-1-methyl-7-(1,3-thiazol-5-yl)-6H-pyrrolo[2,3-e][1,2,4]triazolo[4,3-a]pyridine]",≤ 1000
6,"Cc1nnc2ccc3c(cc(-c4cn(C)cn4)n3Cc3ccccc3)n12 [Example 70, 6-benzyl-1-methyl-7-(1-methyl-1H-imidazol-4-yl)-6H-pyrrolo[2,3-e][1,2,4]triazolo[4,3-a]pyridine]",≤ 1000
7,"Cc1nnc2ccc3c(cc(-c4ccsc4)n3Cc3ccccc3)n12 [Example 72, 6-benzyl-1-methyl-7-(3-thienyl)-6H-pyrrolo[2,3-e][1,2,4]triazolo[4,3-a]pyridine]",≤ 1000
8,"Cc1nnc2ccc3c(cc(-c4cccs4)n3Cc3ccccc3)n12 [Example 73, 6-benzyl-1-methyl-7-(2-thienyl)-6H-pyrrolo[2,3-e][1,2,4]triazolo[4,3-a]pyridine]",≤ 1000
9,"Cc1nnc2ccc3c(cc(-c4c[nH]cn4)n3Cc3ccccc3)n12 [Example 74, 6-benzyl-7-(1H-imidazol-4-yl)-1-methyl-6H-pyrrolo[2,3-e][1,2,4]triazolo[4,3-a]pyridine]",≤ 1000
10,"Cc1nnc2ccc3c(cc(-c4cn(CCN5CCOCC5)cn4)n3Cc3ccccc3)n12 [Example 75, 6-benzyl-1-methyl-7-[1-(2-morpholin-4-ylethyl)-1H-imidazol-4-yl]-6H-pyrrolo[2,3-e][1,2,4]triazolo[4,3-a]pyridine]",≤ 1000
11,"Cc1nnc2ccc3c(cc(-c4ccn(C)n4)n3Cc3ccccc3)n12 [Example 76, 6-benzyl-1-methyl-7-(1-methyl-1H-pyrazol-3-yl)-6H-pyrrolo[2,3-e][1,2,4]triazolo[4,3-a]pyridine]",≤ 1000
12,"Cc1nnc2ccc3c(cc(-c4ccn(CCN5CCOCC5)n4)n3Cc3ccccc3)n12 [Example 77, 6-benzyl-1-methyl-7-[1-(2-morpholin-4-ylethyl)-1H-pyrazol-3-yl]-6H-pyrrolo[2,3-e][1,2,4]triazolo[4,3-a]pyridine]",≤ 1000
13,"Cc1nnc2ccc3c(cc(-c4ccn(CCC#N)n4)n3Cc3ccccc3)n12 [Example 78, 3-[3-(6-benzyl-1-methyl-6H-pyrrolo[2,3-e][1,2,4]triazolo[4,3-a]pyridin-7-yl)-1H-pyrazol-1-yl]propanenitrile]",≤ 1000
14,"CCn1ccc(-c2cc3c(ccc4nnc(C)n43)n2Cc2ccccc2)n1 [Example 79, 6-benzyl-7-(1-ethyl-1H-pyrazol-3-yl)-1-methyl-6H-pyrrolo[2,3-e][1,2,4]triazolo[4,3-a]pyridine]",≤ 1000
15,"CCn1cnc(-c2cc3c(ccc4nnc(C)n43)n2Cc2ccccc2)c1 [Example 80, 6-benzyl-7-(1-ethyl-1H-imidazol-4-yl)-1-methyl-6H-pyrrolo[2,3-e][1,2,4]triazolo[4,3-a]pyridine]",≤ 1000
16,"Cc1nnc2ccc3c(cc(-c4cn(CCC#N)cn4)n3Cc3ccccc3)n12 [Example 81, 3-[4-(6-benzyl-1-methyl-6H-pyrrolo[2,3-e][1,2,4]triazolo[4,3-a]pyridin-7-yl)-1H-imidazol-1-yl]propanenitrile]",≤ 1000
17,"CNC(=O)c1cc2c(ccc3nnc(C)n32)n1Cc1ccccc1 [Example 82, 6-benzyl-N,1-dimethyl-6H-pyrrolo[2,3-e][1,2,4]triazolo[4,3-a]pyridine-7-carboxamide]",≤ 1000
18,"CCCNC(=O)c1cc2c(ccc3nnc(C)n32)n1Cc1ccccc1 [Example 83, 6-benzyl-1-methyl-N-propyl-6H-pyrrolo[2,3-e][1,2,4]triazolo[4,3-a]pyridine-7-carboxamide]",≤ 1000

row,Structure (SMILES),IC50 [nM]
1,"Cc1nnc2ccc3c(cc(C(=O)NC4CCC4)n3Cc3ccccc3)n12 [Example 85, 6-benzyl-N-cyclobutyl-1-methyl-6H-pyrrolo[2,3-e][1,2,4]triazolo[4,3-a]pyridine-7-carboxamide]",≤ 1000
2,"Cc1nnc2ccc3c(cc(-c4ccn(CCN(C)C)n4)n3Cc3ccccc3)n12 [Example 89, 2-[3-(6-benzyl-1-methyl-6H-pyrrolo[2,3-e][1,2,4]triazolo[4,3-a]pyridin-7-yl)-1H-pyrazol-1-yl]-N,N-dimethylethanamine]",≤ 1000
3,"Cc1nnc2ccc3c(cc(-c4ccn(C5(CC#N)CNC5)n4)n3Cc3ccccc3)n12 [Example 90, {3-[3-(6-benzyl-1-methyl-6H-pyrrolo[2,3-e][1,2,4]triazolo[4,3-a]pyridin-7-yl)-1H-pyrazol-1-yl]azetidin-3-yl}acetonitrile]",≤ 1000
4,"CC(=O)N1CC(CC#N)(n2ccc(-c3cc4c(ccc5nnc(C)n54)n3Cc3ccccc3)n2)C1 [Example 91, {1-acetyl-3-[3-(6-benzyl-1-methyl-66H-pyrrolo[2,3-e][1,2,4]triazolo[4,3-a]pyridin-7-yl)-1H-pyrazol-1-yl]azetidin-3-yl}acetonitrile]",≤ 1000
5,"Cc1nnc2ccc3c(cc(-c4ccn(C5(CC#N)CN(S(C)(=O)=O)C5)n4)n3Cc3ccccc3)n12 [Example 92, [3-[3-(6-benzyl-1-methyl-6H-pyrrolo[2,3-e][1,2,4]triazolo[4,3-a]pyridin-7-yl)-1H-pyrazol-1-yl]-1-(methylsulfonyl)azetidin-3-yl]acetonitrile]",≤ 1000
6,"Cc1nnc2ccc3c(cc(-c4ccn(C5(CC#N)CN(C)C5)n4)n3Cc3ccccc3)n12 [Example 93, {3-[3-(6-benzyl-1-methyl-6H-pyrrolo[2,3-e][1,2,4]triazolo[4,3-a]pyridin-7-yl)-1H-pyrazol-1-yl]-1-methylazetidin-3-yl}acetonitrile]",≤ 1000
7,"Cc1nnc2ccc3c(cc(-c4ccn(CCC(=O)N(C)C)n4)n3Cc3ccccc3)n12 [Example 95, 3-[3-(6-benzyl-1-methyl-6H-pyrrolo[2,3-e][1,2,4]triazolo[4,3-a]pyridin-7-yl)-1H-pyrazol-1-yl]-N,N-dimethylpropanamide]",≤ 1000
8,"CCNC(=O)CCn1ccc(-c2cc3c(ccc4nnc(C)n43)n2Cc2ccccc2)n1 [Example 96, 3-[3-(6-benzyl-1-methyl-6H-pyrrolo[2,3-e][1,2,4]triazolo[4,3-a]pyridin-7-yl)-1H-pyrazol-1-yl]-N-ethylpropanamide]",≤ 1000
9,"CNC(=O)CCn1ccc(-c2cc3c(ccc4nnc(C)n43)n2Cc2ccccc2)n1 [Example 97, 3-[3-(6-benzyl-1-methyl-6H-pyrrolo[2,3-e][1,2,4]triazolo[4,3-a]pyridin-7-yl)-1H-pyrazol-1-yl]-N-methylpropanamide]",≤ 1000
10,"Cc1nnc2ccc3c(cc(-c4ccn(CCC(N)=O)n4)n3Cc3ccccc3)n12 [Example 98, 3-[3-(6-benzyl-1-methyl-6H-pyrrolo[2,3-e][1,2,4]triazolo[4,3-a]pyridin-7-yl)-1H-pyrazol-1-yl]propanamide]",≤ 1000
11,"CNC(=O)c1cc2c(ccc3nnc(C)n32)n1Cc1cccc(Cl)c1 [Example 99, 6-(3-chlorobenzyl)-N,1-dimethyl-6H-pyrrolo[2,3-e][1,2,4]triazolo[4,3-a]pyridine-7-carboxamide]",≤ 1000
12,"Cc1nnc2ccc3c(cc(C(=O)N[C@H]4C[C@H](C#N)C4)n3Cc3ccccc3)n12 [Example 100, 6-benzyl-N-(trans-3-cyanocyclobutyl)-1-methyl-6H-pyrrolo[2,3-e][1,2,4]triazolo[4,3-a]pyridine-7-carboxamide]",1000 to 10000
13,"Cc1nnc2ccc3c(cc(C(=O)N[C@H]4C[C@@H](C#N)C4)n3Cc3ccccc3)n12 [Example 101, 6-benzyl-N-(cis-3-cyanocyclobutyl)-1-methyl-6H-pyrrolo[2,3-e][1,2,4]triazolo[4,3-a]pyridine-7-carboxamide]",1000 to 10000
14,"CNC(=O)c1cc2c(ccc3nnc(C)n32)n1Cc1cccc(F)c1 [Example 102, 6-(3-fluorobenzyl)-N,1-dimethyl-6H-pyrrolo[2,3-e][1,2,4]triazolo[4,3-a]pyridine-7-carboxamide]",≤ 1000
15,"Cc1nnc2ccc3c(cc(-c4ccn(CCC(=O)N5CCC5)n4)n3Cc3cccc(Cl)c3)n12 [Example 104, 7-[1-(3-azetidin-1-yl-3-oxopropyl)-1H-pyrazol-3-yl]-6-(3-chlorobenzyl)-1-methyl-6H-pyrrolo[2,3-e][1,2,4]triazolo[4,3-a]pyridine]",≤ 1000
16,"Cc1nnc2ccc3c(cc(-c4ccn(CCC(=O)N5CCN(C)CC5)n4)n3Cc3cccc(Cl)c3)n12 [Example 105, 6-(3-chlorobenzyl)-1-methyl-7-{1-[3-(4-methylpiperazin-1-yl)-3-oxopropyl]-1H-pyrazol-3-yl}-6H-pyrrolo[2,3-e][1,2,4]triazolo[4,3-a]pyridine]",≤ 1000
17,"CC(=O)N1CC(CC#N)(n2ccc(-c3cc4c(ccc5nnc(C)n54)n3Cc3cccc(Cl)c3)n2)C1 [Example 106, (1-acetyl-3-{3-[6-(3-chlorobenzyl)-1-methyl-6H-pyrrolo[2,3-e][1,2,4]triazolo[4,3-a]pyridin-7-yl]-1H-pyrazol-1-yl}azetidin-3-yl)acetonitrile]",≤ 1000

# Same assay, conditions: KMS.12.BM human myeloma cells, 3 days, Cell Titer-GLO ATP quantitation; read-out: KMS cellular IC50
row,Structure (SMILES),IC50 [nM]
1,"Cc1nnc2ccc3c(cc(-c4ccn(CCC(=O)N(C)C)n4)n3Cc3cccc(Cl)c3)n12 [Example 103, 3-{3-[6-(3-chlorobenzyl)-1-methyl-6H-pyrrolo[2,3-e][1,2,4]triazolo[4,3-a]pyridin-7-yl]-1H-pyrazol-1-yl}-N,N-dimethylpropanamide]",≤ 1000
